Earlier results, collected in patent US20200309767A1, “HIGH-THROUGHPUT IMAGING-BASED METHODS FOR PREDICTING CELL-TYPE-SPECIFIC TOXICITY OF XENOBIOTICS WITH DIVERSE CHEMICAL STRUCTURES” (priority 2015, published 2020).
Where a name gives a salt, the structure may show the parent alone. Read-outs that look alike come from different tables or passages of the source.

Legend:
human kidney = conditions: cited from earlier work
[1] = tested on: human proximal tubular cells (PTCs); conditions: cited from earlier work
liver = conditions: in vivo; cited from earlier work
[2] = known human kidney toxicity flag 1/0
[3] = known in vivo group, Toxic / Non-toxic

[K+].[K+].[O]=[Cr](=[O])([O-])[O][Cr](=[O])(=[O])[O-] [Potassium dichromate]
Nephrotoxic (human kidney; in vivo): 1
PTC Toxicity ([1]; human, in vivo): Toxic
PTC-toxic ([1]; human, in vivo): 1
Hepatotoxic (liver): 1

CC1=C2C(=CO[C@H](C)[C@H]2C)C(O)=C(C(=O)O)C1=O [Citrinin]
Nephrotoxic (human kidney; in vivo): 1
PTC Toxicity ([1]; human, in vivo): Toxic
PTC-toxic ([1]; human, in vivo): 1
Hepatotoxic (liver): 0

CC(=O)OCC1=C(C(=O)O)N2C(=O)[C@@H](NC(=O)Cc3cccs3)[C@H]2SC1 [Cephalothin]
Nephrotoxic (human kidney; in vivo): 1
PTC Toxicity ([1]; human, in vivo): Toxic
PTC-toxic ([1]; human, in vivo): 1
Hepatotoxic (liver): 0

COc1ccc(C[C@H](N)C(=O)N[C@H]2[C@@H](O)[C@H](n3cnc4c(N(C)C)ncnc43)O[C@@H]2CO)cc1 [Puromycin]
Nephrotoxic (human kidney; in vivo): 1
PTC Toxicity ([1]; human, in vivo): Toxic
PTC-toxic ([1]; human, in vivo): 1
Hepatotoxic (liver): 1

NCC(=O)O [Glycine]
Nephrotoxic (human kidney; in vivo): 0
PTC Toxicity ([1]; human, in vivo): Non-toxic
PTC-toxic ([1]; human, in vivo): 0
Hepatotoxic (liver): 0

[Bi+3].[Bi+3].[O-2].[O-2].[O-2] [Bismuth(III) oxide]
Nephrotoxic (human kidney; [2]): 1
PTC Toxicity [1, 3]: Toxic
PTC-toxic ([1]; known toxicity flag 1/0): 1
Hepatotoxic (liver): 1

N[C@@H](Cc1cc(I)c(Oc2ccc(O)c(I)c2)c(I)c1)C(=O)O [Triiodothyronine]
PTC Toxicity ([1]; human, in vivo): Non-toxic

N[C@@H](Cc1ccc(O)c(O)c1)C(=O)O [Levodopa]
PTC Toxicity ([1]; human, in vivo): Non-toxic

CN(C)[C@@H]1C(O)=C(C(N)=O)C(=O)[C@@]2(O)C(O)=C3C(=O)c4c(O)cccc4[C@@](C)(O)[C@H]3C[C@@H]12 [Tetracycline]
Nephrotoxic (human kidney; in vivo): 1
PTC Toxicity ([1]; human, in vivo): Toxic
PTC-toxic ([1]; human, in vivo): 1
Hepatotoxic (liver): 1

[Cl][Cu][Cl] [Copper(II) chloride]
Nephrotoxic (human kidney; [2]): 1
PTC Toxicity [1, 3]: Toxic
PTC-toxic ([1]; known toxicity flag 1/0): 1
Hepatotoxic (liver): 1

C[C@@H]1C[C@H]2[C@@H]3CCC4=CC(=O)C=C[C@]4(C)[C@@]3(F)[C@@H](O)C[C@]2(C)[C@@]1(O)C(=O)CO [Dexamethasone]
Nephrotoxic (human kidney; in vivo): 0
PTC Toxicity ([1]; human, in vivo): Non-toxic
PTC-toxic ([1]; human, in vivo): 0
Hepatotoxic (liver): 0

C[C@]12CCC(=O)C=C1CC[C@@H]1[C@@H]2[C@@H](O)C[C@@]2(C)[C@H]1CC[C@]2(O)C(=O)CO [Hydrocortisone]
PTC Toxicity ([1]; human, in vivo): Non-toxic
PTC-toxic ([1]; human, in vivo): 0
Hepatotoxic (liver): 0

[Cl][Au] [Gold(I) chloride]
Nephrotoxic (human kidney; in vivo): 1
PTC Toxicity ([1]; human, in vivo): Toxic
PTC-toxic ([1]; human, in vivo): 1
Hepatotoxic (liver): 1

CC(=O)OCC1=C(C(=O)O)N2C(=O)[C@@H](NC(=O)CCC[C@@H](N)C(=O)O)[C@H]2SC1 [Cephalosporin C]
Nephrotoxic (human kidney; in vivo): 1
PTC Toxicity ([1]; human, in vivo): Toxic
PTC-toxic ([1]; human, in vivo): 1
Hepatotoxic (liver): 0

COc1ccc2[nH]cc(CCNC(C)=O)c2c1 [Melatonin]
PTC Toxicity ([1]; human, in vivo): Non-toxic

O=C(Cc1cccs1)N[C@@H]1C(=O)N2C(C(=O)[O-])=C(C[n+]3ccccc3)CS[C@H]12 [Cephaloridine]
Nephrotoxic (human kidney; in vivo): 1
PTC Toxicity ([1]; human, in vivo): Toxic
PTC-toxic ([1]; human, in vivo): 1
Hepatotoxic (liver): 0

Cl[C@H]1[C@H](Cl)[C@@H](Cl)[C@@H](Cl)[C@H](Cl)[C@H]1Cl [Lindane]
Nephrotoxic (human kidney; in vivo): 1
PTC Toxicity ([1]; human, in vivo): Non-toxic
PTC-toxic ([1]; human, in vivo): 0
Hepatotoxic (liver): 0

CCOc1ccc(NC(C)=O)cc1 [Phenacetin]
PTC Toxicity ([1]; human, in vivo): Non-toxic

CN(C)C(=N)N=C(N)N [Metformin hydrochloride]
Nephrotoxic (human kidney; in vivo): 1
Hepatotoxic (liver): 0

CC(C)Cc1ccc(C(C)C(=O)O)cc1 (stereo not drawn) [Ibuprofen]
PTC Toxicity ([1]; human, in vivo): Non-toxic
PTC-toxic ([1]; human, in vivo): 0
Hepatotoxic (liver): 1

C[C@H]1O[C@H](O[C@H]2[C@H](O)[C@@H](O)[C@@H](O[C@H]3[C@H](O)[C@@H](O)C(O)O[C@@H]3CO)O[C@@H]2CO)[C@H](O)[C@@H](O)[C@@H]1N[C@H]1C=C(CO)[C@@H](O)[C@H](O)[C@H]1O (stereo partly drawn) [Acarbose]
PTC Toxicity ([1]; human, in vivo): Non-toxic
PTC-toxic ([1]; known toxicity flag 1/0): 0
